How the values were obtained:
[1] = Histological analysis of liver of tumor-bearing mice; assay type: in vivo, BALB/c mice; conditions: rolipram-treated tumor-bearing mice; dilation observed in untreated tumor-bearing mice
Experimental: (§1) Solid tumors were developed in BALB/c mice (n = 3) except the control group (group I) by injecting 1 × 10^4 viable 4T1 (RRID: CVCL_0125) mice breast carcinoma cells (resuspended in 50 μl of PBS) into the inguinal fourth mammary fat pad, and the tumor was allowed to develop for 14 days ([37], [38]). Mice were randomly divided into three groups, viz., untreated tumor (group II), mice treated intraperitoneally with 1 mg//kg bodyweight of rolipram (group III), and mice receiving 5 mg/kg bodyweight of rolipram, intraperitoneally (group IV) ([39], [40]). After 14 days, the mice were sacrificed. Lung, kidney, liver, serum, and the tumors were collected for further experiments ([15]).
Tissue samples of mammary tissue, lung, kidney, and liver from each group of mice were fixed in Bouin’s solution (Sigma–Aldrich; catalog no.: HT10132), dehydrated in graded alcohol, and embedded in paraffin wax. Thin sections (5 μm) of tissues were mounted on glass slides and stained with hematoxylin (Sigma–Aldrich; catalog no.: H3136), following rehydration with graded alcohol. The samples were again dehydrated with graded alcohol and stained with eosin and mounted with Dystyrene Plasticizer Xylene ([42]). […] For quantifying the number of cells in a unit area of histological section of lung, each section image was divided into 12 equal parts (dimensions: 480 px × 400 px). […]

[2] = system: 4T1 mice breast carcinoma cells, mammary fat pad tumor; test: Histological study of mammary tissue and lung of tumor-bearing mice; assay type: in vivo, BALB/c mice; conditions: for number of cells per unit area (480 px × 400 px) of lung histological sections: tumor-induced 213 ± 20, control 143 ± 19, mean ± SD
Experimental: as §1
Tissue samples of mammary tissue, lung, kidney, and liver from each group of mice were fixed in Bouin’s solution (Sigma–Aldrich; catalog no.: HT10132), dehydrated in graded alcohol, and embedded in paraffin wax. Thin sections (5 μm) of tissues were mounted on glass slides and stained with hematoxylin (Sigma–Aldrich; catalog no.: H3136), following rehydration with graded alcohol. The samples were again dehydrated with graded alcohol and stained with eosin and mounted with Dystyrene Plasticizer Xylene ([42]). The images were obtained in an Olympus CKX53 Inverted Microscope (RRID: SCR_025025) at 10X magnifications with MagVision Software (Magnus). The QuPath (RRID: SCR_018257) software ([43]) was used to detect the cells and determine the area of individual cells and their corresponding nuclei in each image. The tab-delimited text file obtained from QuPath software was utilized by NumPy ([44]) (RRID: SCR_008633) to determine the nucleus-to-cytoplasm ratio of individual cells, and the frequency (cell count) of the nucleus-to-cytoplasm ratio was plotted by MatPlotLib (RRID: SCR_008624), a Python (RRID: SCR_008394) 2D plotting library. For quantifying the number of cells in a unit area of histological section of lung, each section image was divided into 12 equal parts (dimensions: 480 px × 400 px). The number of cells in each part was obtained from QuPath (RRID: SCR_018257) software, and the values were represented as mean ± SD.

[3] = Bodyweight of tumor-bearing mice; assay type: in vivo, BALB/c mice; conditions: intraperitoneally
Experimental: as §1

MCF-7 cells = test: Western blot analysis of protein expression; assay type: cell-based, human
Experimental: After treatment of cells with rolipram, proteins were extracted from cells by lysing the cells with radioimmunoprecipitation assay buffer, comprising of 150 mM NaCl, 1% Triton X-100, 0.5% sodium deoxycholate, and 0.1% SDS. Equal amount of proteins (40 μg) were resolved using SDS-PAGE before transferring onto nitrocellulose membrane (Immobilon-NC Transfer Membrane; Merck Millipore; catalog no.: HATF00010). The membranes were then incubated overnight with primary antibody at a dilution of 1:1000 at 4°C followed by incubation with secondary antibodies at a dilution of 1:5000 for 2 h at room temperature. Immune detection was performed using femtoLUCENT PLUS-HRP (G-Biosciences; catalog no.: 786-003), and the image was obtained from the Bio-Rad ChemiDoc XRS+ system. Analysis of protein expression was carried out using Bio-Rad Image Lab software (RRID: SCR_014210) and National Institutes of Health ImageJ software ([34]) (RRID: SCR_003070). All protein expressions were normalized against β-tubulin (loading control).

GLI1 = test: Immunohistochemistry of tumor tissue, GLI1; assay type: in vivo, BALB/c mice
Experimental: as §1
Mice mammary fat pad and mammary tumor tissues were processed as for histology, and 5 μm-thick sections were mounted on glass slides. The tissue sections were deparaffinized with xylene and hydrated with […] grades of alcohols (100% to 70%). Rehydrated sections were equilibrated in PBS. Antigen retrieval was performed by boiling the sections in a 0.1 M sodium citrate buffer (pH 6.0) for 10 min. […] The frequency (cell count) of positive and negative cells as well as the mean absorbance of the positive cells were plotted using MatPlotLib (RRID: SCR_008624), a Python (RRID: SCR_008394) 2D plotting library.

[4] = system: 4T1 mice breast carcinoma cells, mammary fat pad tumor; test: Solid tumor in mice, tumor weight and volume; assay type: in vivo, BALB/c mice; conditions: vs untreated tumor
Experimental: as §1
Weight of mammary fat pad of mice from group I and weight of tumors from groups II, III, and IV were measured using digital fine balance. Width and length of the tumors obtained from mice of groups II, III, and IV were measured using digital Vernier caliper. The volume was measured by the formula V = half × (W × W × L), where V is the volume, W is the width, and L is the length of the tumors ([15], [41]).

[5] = 1 mg/kg bodyweight i.p., 14 days of treatment
[6] = 5 mg/kg bodyweight i.p., 14 days

SMILES: COc1ccc(C2CNC(=O)C2)cc1OC1CCCC1 (stereo not shown) [rolipram, Rolipram]
- hepatic vein dilation [1]: not evident
- number of cells per unit area (480 px × 400 px) of lung histological sections ([2]; 1 mg/kg bodyweight): 154 ± 11
- number of cells per unit area (480 px × 400 px) of lung histological sections ([2]; 5 mg/kg bodyweight): 119 ± 10
- metastatic cellular infiltration in the lung tissues ([2]; rolipram-treated tumor-bearing mice): significantly reduce
- multinucleated cells in the mammary fat pad and glandular region ([2]; rolipram-treated tumor-bearing mice, p < 0.001): reduced
- bodyweight of tumor-bearing mice ([3]; 1 mg/kg bodyweight): No significant changes
- bodyweight of tumor-bearing mice ([3]; 5 mg/kg bodyweight): No significant changes
- reduction of MMP9 expression (MCF-7 cells; MCF-7 (hormone-responsive cells), 48 h): fourfold
- downregulation of expression of MMP2 (MCF-7 cells; MCF-7, IC50 dose): twofold
- levels of phospho-Akt (MCF-7 cells; MCF-7, IC50 dose): reduced
- levels of phosphorylated-GSK3β (MCF-7 cells; MCF-7, IC50 dose): reduced levels
- level of GLI2FL (MCF-7 cells; MCF-7, IC50 dose, time course): remained unchanged
- level of GLI2R (MCF-7 cells; MCF-7, IC50 dose, time course): increased with time
- level of GLI3R (MCF-7 cells; MCF-7, IC50 dose, time course): increased with time
- levels of PKA (MCF-7 cells; MCF-7, IC50 dose, time course): increased levels
- level of GLI1 (MCF-7 cells; MCF-7, IC50 dose, time-dependent): reduced
- elevated expression of PTEN (MCF-7 cells; MCF-7, IC50 dose, within 12 h): threefold
- levels of vimentin (MCF-7 cells; MCF-7, after 48 h): decrease
- levels of GLI proteins (MCF-7 cells; MCF-7, cotreatment with H89 (10 μM), 24 h, vs control and H89 only): unaltered
- repressor forms of GLI2 and GLI3 (MCF-7 cells; MCF-7, in combination with TAK-243 (0.1 μM), 24 h): failed to produce the repressor forms
- effects on expressions of MMPs, E-cadherin, and vimentin (MCF-7 cells; MCF-7, in the presence of TAK-243): failed to exert any of the aforementioned effects
- elevation of level of E-cadherin (MCF-7 cells; MCF-7, within 24 h): twofold
- reduction of GLI1 expression in tumor tissue (GLI1; 1 mg/kg bodyweight): twofold
- reduction of GLI1 expression in tumor tissue (GLI1; 5 mg/kg bodyweight): sixfold
- reduction of tumor volume [4, 5]: twofold
- reduction of tumor weight [4, 5]: twofold
- reduction of tumor volume [4, 6]: 2.8 fold
- reduction of tumor weight [4, 6]: 3.4 fold

— publication PMC11879692, “PDE4 inhibitor rolipram represses hedgehog signaling via ubiquitin-mediated proteolysis of GLI transcription factors to regress breast cancer” (The Journal of Biological Chemistry, 2025)
